{"source": "patent US7517889B2", "about": "“2,6-substituted-4-monosubstitutedamino-pyrimidine as prostaglandin D2 receptor antagonists” (Aventis Pharmaceuticals, Inc., priority 2004, dated 2009)", "note": "Counter-ions that a name gives are not always drawn.", "data": [{"molecular_target": "T1, DP receptor (Homo sapiens, UniProt Q13258)", "T1 construct": "the human cell line LS174T, which expresses the endogenous DP receptor; endogenous in cells; host or cells: LS174T human cell line", "T1 sequence (Q13258 1-359)": "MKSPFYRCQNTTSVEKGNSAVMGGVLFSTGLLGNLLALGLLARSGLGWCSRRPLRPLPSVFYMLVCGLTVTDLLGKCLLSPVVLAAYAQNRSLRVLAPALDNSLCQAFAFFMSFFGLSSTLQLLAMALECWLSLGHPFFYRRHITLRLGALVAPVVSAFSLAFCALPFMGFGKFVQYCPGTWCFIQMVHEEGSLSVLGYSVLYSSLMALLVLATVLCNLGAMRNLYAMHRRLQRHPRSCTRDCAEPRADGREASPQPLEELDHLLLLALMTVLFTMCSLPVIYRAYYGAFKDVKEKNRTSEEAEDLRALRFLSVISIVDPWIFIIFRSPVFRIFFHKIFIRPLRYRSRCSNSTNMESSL", "assay": "SPA cAMP assay in human LS174 T cells (human DP functional assay)", "type": "cell-based", "conditions": "inhibition of PGD2 (15 nM final) stimulated cAMP, LS174T cells expressing endogenous DP receptor", "method": "The inhibitory effects of the compounds according to the invention are assessed in a human DP functional assay. A cAMP assay is employed using the human cell line LS174T, which expresses the endogenous DP receptor.\nProtocol for SPA cAMP Assay in Human LS174 T Cells\n• 1) Add equal volumes of tracer, antiserum and SPA anti-rabbit reagent to a bottle, ensuring that a sufficient volume of this mixture is prepared for the desired number of wells (150 μL/well). • 2) Mix thoroughly. • 3) This immunoreagent solution should be freshly prepared before each assay and not re-used.\nAdd 50 μL of […] IBMX into 100 mL PBS to make a final concentration of 100 μM and sonicate at 30° C. for 20 minutes.\nBefore each assay, it is freshly prepared. Add 3 μL of 10 mM stock solution to 20 mL DMSO, mix it thoroughly, and transfer 10 mL to 40 mL PBS.\nCompound dilution is carried out in Biomex 2000 (Beckman) using Method 1_cAMP DP 11 points.\n5 μL of each compound from the 10 mM stock compound plates is transferred to the wells of a 96-well plate respectively as below.\nFill the plate with 45 μL of DMSO except column 7 is filled with 28 μL DMSO. Pipette column 1 thoroughly, and transfer 12 μL into column 7 parallel. Perform 1:10 serial dilution from column 1 to column 6 and from column 7 to column 11 by transfer 5 μL to 45 μL DMSO to make following concentrations:\nFill a new 96-well plate with 247.5 μL of compound dilution buffer. Transfer 2.5 μL of serially diluted compounds from above plate to the new plate (1:100 dilution) as following:\nCell Growth • 1. […] Remove growth medium from cells. Cells in T165 flask are washed twice with 4 mL Trypsin followed by incubation at 37° C. and 5% CO2 for 3 minutes. • 4. Add 10 mL of medium and pipette thoroughly to separate the cells and count the cells. • 5. […] Assay Procedure Day 1 • Seed 45,000 cells/well in 200 μL medium in 96-well plates. Incubate the cell plate at 37° C., 5% CO2 and 95% humidity overnight. Day 2 • 1. Perform compound dilution. • 2. Prepare assay buffer, lysis buffer 1 & 2, PGD2 and standard. • 3. Aspirate media from the cells and add 100 μL of compound solution using Zymark Sciclone-ALH/FD protocol cAMP DP. • 4. Incubate the cells at 37° C., 5% CO2 and 95% humidity for 15 minutes. • 5. […] Aspirate media from the cells and add 50 μL of lysis buffer 1 using Zymark protocol cAMP DP lysis, and incubate at room temperature with shaking for 30 minutes. • 7. Add 150 μL immunoreagent to all wells (a total volume of 200 μL/well). • 8. Seal the plates and shake for 2 minutes, put into the chamber of the Wallac microtitre plate μ scintillation counter for 16 hours. […] Data Processing Set up standard curve of cAMP versus CPM.\nThe cAMP concentrations (pmol/mL) of unknown samples are calculated from a standard curve of cAMP versus CPM. % inhibition is calculated using the following formula: […]", "units": {"IC50": "nM"}, "values": [{"smiles": "COc1ccc(CCNc2cc(-c3cc4ccccc4s3)nc(OC)n2)cc1", "note": "[Example 10(g), (6-Benzo[b]thiophen-2-yl-2-methoxy-pyrimidin-4-yl)-[2-(4-methoxy-phenyl)-ethyl]-amine]", "IC50": 5.1}, {"smiles": "COc1ccc(CCNc2cc(-c3cccc(C#N)c3)nc(OC)n2)cc1", "note": "[Example 35(t), 3-{2-Methoxy-6-[2-(4-methoxy-phenyl)-ethylamino]-pyrimidin-4-yl}-benzonitrile]", "IC50": 0.9}, {"smiles": "COc1nc(NCCc2ccc3c(c2)OC(F)(F)O3)cc(-c2ccc[n+]([O-])c2)n1", "note": "[Example 21(b), [2-(2,2-Difluoro-benzo[1,3]dioxol-5-yl)-ethyl]-[2-methoxy-6-(1-oxy-pyridin-3-yl)-pyrimidin-4-yl]-amine]", "IC50": 2150}, {"smiles": "COc1nc(NCCc2ccc(Cl)cc2Cl)cc(-c2cccc(C(=O)NCC(=O)O)c2)n1", "note": "[Example 59, (3-{6-[2-(2,4-Dichloro-phenyl)-ethylamino]-2-methoxy-pyrimidin-4-yl}-benzoylamino)-acetic acid]", "IC50": 0.8}, {"smiles": "CCOC(=O)C1(c2cccc(-c3cc(NCCc4ccc(Cl)cc4Cl)nc(OC)n3)c2)CCOCC1", "note": "[Example 80(c), 4-(3-{6-[2-(2,4-Dichloro-phenyl)-ethylamino]-2-methoxy-pyrimidin-4-yl}-phenyl)-tetrahydro-pyran-4-carboxylic acid ethyl ester]", "IC50": 223}, {"smiles": "COc1ccc(CCNc2cc(-c3ccc4[nH]c(=O)oc4c3)nc(OC)n2)cc1", "note": "[Example 14(c), 6-{2-Methoxy-6-[2-(4-methoxy-phenyl)-ethylamino]-pyrimidin-4-yl}-3H-benzooxazol-2-one]", "IC50": 7}, {"smiles": "COc1nc(NCC2OCCc3ccccc32)cc(-c2cccc(C(C)(C)C(=O)O)c2)n1", "note": "(stereo not drawn) [Example 91, 2-(3-{6-[(Isochroman-1-ylmethyl)-amino]-2-methoxy-pyrimidin-4-yl}-phenyl)-2-methyl-propionic acid]", "IC50": 23}, {"smiles": "COc1ccc(C(C)(C)CNc2cc(-c3cccc(OC)c3)nc(OC)n2)cc1", "note": "[Example 29, [2-Methoxy-6-(3-methoxy-phenyl)-pyrimidin-4-yl]-[2-(4-methoxy-phenyl)-2-methyl-propyl]-amine]", "IC50": 792}, {"smiles": "CCOC(=O)OC(C)OC(=O)C(C)(C)c1cccc(-c2cc(NCCc3ccc(Cl)cc3Cl)nc(OC)n2)c1", "note": "(stereo not drawn) [Example 50, 2-(3-{6-[2-(2,4-Dichloro-phenyl)-ethylamino]-2-methoxy-pyrimidin-4-yl}-phenyl)-2-methyl-propionic acid 1-ethoxycarbonyloxy-ethyl ester hydrochloride]", "IC50": 4}, {"smiles": "COc1nc(NCCc2ccc(OC(F)(F)F)cc2)cc(-c2ccc(F)c(C(C)(C)C(=O)O)c2)n1", "note": "[Example 70, 2-(2-Fluoro-5-{2-methoxy-6-[2-(4-trifluoromethoxy-phenyl)-ethylamino]-pyrimidin-4-yl}-phenyl)-2-methyl-propionic acid]", "IC50": 193}, {"smiles": "CCOC(=O)c1cccc(-c2cc(NCCc3ccc(Cl)cc3Cl)nc(OC)n2)c1", "note": "[Example 77, 3-{6-[2-(2,4-Dichloro-phenyl)-ethylamino]-2-methoxy-pyrimidin-4-yl}-benzoic acid ethyl ester]", "IC50": 149}, {"smiles": "COc1ccc(CCNc2cc(-c3cccc(OC)c3)nc(N(C)C)n2)cc1", "note": "[Example 19, 6-(3-Methoxy-phenyl)-N*4*-[2-(4-methoxy-phenyl)-ethyl]-N*2*,N*2*-dimethyl-pyrimidine-2,4-diamine hydrochloride]", "IC50": 4650}, {"smiles": "COc1ccc(CCNc2cc(-c3ccc(N(C)C)cc3)nc(OC)n2)cc1", "note": "[Example 10(I)]", "IC50": 42}, {"smiles": "COc1ccc(CCNc2cc(OCc3ccccc3OC)nc(OC)n2)cc1", "note": "[Example (48), [2-Methoxy-6-(2-methoxy-benzyloxy)-pyrimidin-4-yl]-[2-(4-methoxy-phenyl)-ethyl]-amine hydrochloride]", "IC50": 12}, {"smiles": "COc1ccc(CCNc2cc(-c3cccc(S(N)(=O)=O)c3)nc(OC)n2)cc1", "note": "[Example 3, 3-{2-Methoxy-6-[2-(4-methoxy-phenyl)-ethylamino]-pyrimidin-4-yl}-benzenesulfonamide]", "IC50": 2.9}, {"smiles": "COc1cccc(-c2cc(NCCc3c[nH]c4cc(OC)ccc34)nc(OC)n2)c1", "note": "[Example 43(g), [2-(6-Methoxy-1H-indol-3-yl)-ethyl]-[2-methoxy-6-(3-methoxy-phenyl)-pyrimidin-4-yl]-amine hydrochloride]", "IC50": 104}, {"smiles": "COc1nc(NCCc2ccc(Cl)cc2Cl)cc(-c2cccc(C(C)C(=O)O)c2)n1", "note": "(stereo not drawn) [Example 49(a), 2-(3-{6-[2-(2,4-Dichloro-phenyl)-ethylamino]-2-methoxy-pyrimidin-4-yl}-phenyl)-propionic acid hydrochloride]", "IC50": 1}, {"smiles": "COc1ccc(CCNc2cc(-c3cccc(S(C)(=O)=O)c3)nc(OC)n2)cc1", "note": "[Example 10(i)]", "IC50": 7.3}, {"smiles": "COc1ccc(CCNc2cc(-c3ccc(CN4CCCC4)s3)nc(OC)n2)cc1", "note": "[Example 13(a), [2-(4-Methoxy-phenyl)-ethyl]-[2-methoxy-6-(5-pyrrolidin-1-ylmethyl-thiophen-2-yl)-pyrimidin-4-yl]-amine]", "IC50": 44}, {"smiles": "COc1nc(NCCc2ccc(OC)c(F)c2)cc(-c2cccc(-c3nn[nH]n3)c2)n1", "note": "[Example 40, [2-(3-Fluoro-4-methoxy-phenyl)-ethyl]-{2-methoxy-6-[3-(2H-tetrazol-5-yl)-phenyl]-pyrimidin-4-yl}-amine]", "IC50": 0.4}, {"smiles": "COc1nc(NCCc2ccc3c(c2)OC(F)(F)O3)cc(-c2cccnc2)n1", "note": "[Example 46(b), [2-(2,2-difluoro-benzo[1,3]dioxol-5-yl)-ethyl]-(2-methoxy-6-pyridin-3-yl-pyrimidin-4-yl)-amine]", "IC50": 212}, {"smiles": "COC(=O)C1(c2cccc(-c3cc(NCCc4ccc(OC(F)(F)F)cc4)nc(OC)n3)c2)CCOCC1", "note": "[Example 84(b), 4-(3-{2-Methoxy-6-[2-(4-trifluoromethoxy-phenyl)-ethylamino]-pyrimidin-4-yl}-phenyl)-tetrahydro-pyran-4-carboxylic acid methyl ester]", "IC50": 70}, {"smiles": "COC(=O)Cn1cc(-c2cc(NCCc3c(F)cccc3Cl)nc(OC)n2)ccc1=O", "note": "[Example 22(d), (5-{6-[2-(2-Chloro-6-fluoro-phenyl)-ethylamino]-2-methoxy-pyrimidin-4-yl}-2-oxo-2H-pyridin-1-yl)-acetic acid methyl ester]", "IC50": 14}, {"smiles": "COCC(=O)NCCc1cccc(-c2cc(NCCc3ccc(C(F)(F)F)cc3F)nc(OC)n2)c1", "note": "[Example 64, N-[2-(3-{6-[2-(2-Fluoro-4-trifluoromethyl-phenyl)-ethylamino]-2-methoxy-pyrimidin-4-yl}-phenyl)-ethyl]-2-methoxy-acetamide]", "IC50": 56}, {"smiles": "CNC(=O)c1ccc(-c2cc(NCCc3ccc(OC)cc3)nc(OC)n2)s1", "note": "[Example 62, 5-{2-Methoxy-6-[2-(4-methoxy-phenyl)-ethylamino]-pyrimidin-4-yl}-thiophene-2-carboxylic acid methylamide trifluoroacetate]", "IC50": 0.3}, {"smiles": "COc1nc(NCCc2ccc(Cl)cc2Cl)cc(-c2cccc(C(=O)OCCN3CCN(C)CC3)c2)n1", "note": "[Example 76, 3-{6-[2-(2,4-Dichloro-phenyl)-ethylamino]-2-methoxy-pyrimidin-4-yl}-benzoic acid 2-(4-methyl-piperazin-1-yl)-ethyl ester]", "IC50": 7}, {"smiles": "COc1nc(NCCc2ccc(OC(F)F)cc2)cc(-c2cccc(S(C)(=O)=O)c2)n1", "note": "[example 46(d), [2-(4-Difluoromethoxy-phenyl)-ethyl]-[6-(3-methanesulfonyl-phenyl)-2-methoxy-pyrimidin-4-yl]-amine hydrochloride]", "IC50": 17}]}]}
